Reference: patent US8129357B2, “Method of making and using an adenosine analogue” (Academia Sinica, priority 2006, dated 2012)
Entries after “also recorded” stand apart in the source; their conditions may differ.

Columns and labels:
[1] = test system: PC12 cells; assay: MTT assay: protection of serum-deprived PC12 cells from apoptosis; format: cell-based, rat; settings: 24 h treatment
Experimental: PC12 cells purchased from American Type Culture Collection (ATCC, Manassas, Va., USA) were maintained in Dulbecco's Modified Eagle Medium (DMEM) supplemented with 10% horse serum and 5% fetal bovine serum and incubated in a CO2 incubator (5%) at 37° C. The striatal progenitor cell line (ST14A) was obtained from Dr. E. Cattaneo (University of Milano, Italy) and was maintained in an incubation chamber with 10% CO2-90% air at 33° C. as described previously (Ehrlich, et al. (2001)).
PC12 cells were serum-deprived by three washes of phosphate buffered saline (PBS) and resuspended in DMEM. The suspended cells were plated on 96-well plates (1×10^4 cells/well) and treated with the indicated reagent(s). After treatment for 21 h, 3-(4,5-dimethylthiazol-2-yl)-2,5-diphenyl tetrazolium bromide (MTT) was added to the medium (0.5 mg/mL) and incubated at 37° C. for another 3 h. After discarding the medium, 100 μl dimethyl sulfoxide (DMSO) was then applied to each well to dissolve the formazan crystals and the absorbances at 570 and 630 nm in each well were measured on a micro-enzyme linked immunosorbent assay (ELISA) reader.

[2] = test system: R6/2 mice; assay: Rotarod performance (motor coordination) in R6/2 mice; format: in vivo, mouse; settings: drinking water from the age of 4 weeks, T1-C 0.5 mg/mL, T1-11 0.05 mg/mL
Source text: Male R6/2 mice and littermate controls were mated to female control mice (B6CBAFI/J). Mice were obtained from Jackson Laboratories, Bar Harbor, Me., USA. Offspring were identified by the PCR genotyping technique of genomic DNA extracted from tail tissues using primers located in the transgene (5′-[…]-3′ (SEQ ID NO: 1) and 5′-[…]-3′ (SEQ ID NO: 2)) to ensure that the number of CAG repeats remained approximately 150. In total, 67 R6/2 transgenic mice were used in this study. Animals were housed at the Institute of Biomedical Sciences Animal Care Facility under a 12-h light/dark cycle. Daily injections of the indicated reagent were given between 13:00 and 18:00. Body weights of mice were recorded once daily, prior to diet administration. Animal experiments were performed under protocols approved by the Academia Sinica Institutional Animal Care and Utilization Committee, Taiwan.
Motor coordination was assessed using a rotarod apparatus (UGO BASILE, Comerio, Italy) at a constant speed (12 rpm) over the period of 2 min (Carter, et al. (1999)). All mice were trained for 2 days at the age of 6 weeks to allow them to become acquainted with the rotarod apparatus. Animals were then tested three times per week from the ages of 7 to 12 weeks. For each test, animals were placed in the apparatus before initiation of rotation. Latency to falling was automatically recorded. […]

[3] = test system: R6/2 mice; assay: Survival / lifespan of R6/2 mice; format: in vivo, mouse; settings: for lifespan of R6/2 mice: drinking water from the age of 4 weeks, T1-C 0.5 mg/mL, T1-11 0.05 mg/mL; for mean survival time: mean±SEM, n=7~8, T1-C 0.5 mg/mL, T1-11 0.05 mg/mL in drinking water, control 94.9±2.5
[4] = molecular target: T1, A2A-R (Rattus norvegicus, UniProt P30543); assay: Cellular cAMP content of ST14A cells; format: cell-based; settings: for intracellular cAMP level: 20 min at RT, CGS21680 10 μM, T1-C 10 μM, T1-11 26.8 μM
T1 construct: treating ST14A cells (Ehrlich, et al. (2001)) with either T1-C or T1-11 also elevated the intracellular cAMP level; endogenous in cells; host or cells: ST14A striatal progenitor cell line

[5] = Body weight of R6/2 mice; format: in vivo, mouse; settings: drinking water from the age of 4 weeks, T1-C 0.5 mg/mL, T1-11 0.05 mg/mL
[6] = test system: primary astrocytes from wildtype (WT) and R6/2-J2 mice; assay: LPS-induced iNOS expression and NO production in primary astrocytes; format: cell-based, mouse; settings: primary astrocytes from WT and R6/2-J2 mice
Experimental: Primary astrocytes were purified from neonatal (1-2-day old) brains of R6/2 HD mice (Mangiarini, L., et al., Exon 1 of the HD gene with an expanded CAG repeat is sufficient to cause a progressive neurological phenotype in transgenic mice. Cell 87, 493-506 (1996)) and their littermates as the WT control. In brief, the cortexes were carefully removed, digested with 0.05% trypsin-EDTA (Gibco, Grand Island, N.Y., USA) at 37° C. for 10 min, then mechanically dissociated by gentle pipetting and passed through a 70-μm-pore nylon mesh. […] Mutant Htt expression was measured by a mouse monoclonal anti-human Htt antibody (EM48) (1:200 dilution, Chemicon International, Temecula, Calif., USA). The purity of the primary astrocyte cultures was determined by immunocytochemical staining using an antibody against an astrocyte-specific marker (GFAP, dilution 1:1000; Sigma, St. Louis, Mo., USA) or a microglia-specific marker (anti-CD11b, dilution 1:200, Serotec, Oxford, UK). […]
Protein concentrations were determined using the Bio-Rad Protein Assay Dye Reagent Concentrate (Bio-Rad, Hercules, Calif., USA). […]
For the measurement of NO production, cells (5×10^5 cells/well) were treated with lipopolysaccharide (LPS, 0.5 μg/ml) in the presence of the desired drug for 72 hr. […] The absorbance at 540 nm was then monitored. […]

[7] = test system: BV2 cells; assay: LPS-evoked iNOS induction and NO production in BV2 cells; format: cell-based

T1 sequence (P30543 whole entry): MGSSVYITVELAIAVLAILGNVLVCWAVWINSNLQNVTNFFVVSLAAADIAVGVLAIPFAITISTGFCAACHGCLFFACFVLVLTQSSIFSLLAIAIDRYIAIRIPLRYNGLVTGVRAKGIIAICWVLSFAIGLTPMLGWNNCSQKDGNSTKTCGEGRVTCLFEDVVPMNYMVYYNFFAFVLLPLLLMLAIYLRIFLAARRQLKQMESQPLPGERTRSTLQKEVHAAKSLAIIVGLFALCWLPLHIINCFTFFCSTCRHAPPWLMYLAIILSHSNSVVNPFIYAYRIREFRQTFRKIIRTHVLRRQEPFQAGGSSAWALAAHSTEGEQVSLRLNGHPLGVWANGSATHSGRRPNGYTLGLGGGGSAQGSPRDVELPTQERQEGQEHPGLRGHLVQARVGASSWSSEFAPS

SMILES	protection of PC12 cells from apoptosis induced by serum withdrawal (cell viability, MTT) [1]	progressive deterioration of motor coordination (rotarod performance) [2]	lifespan of R6/2 mice [3]	mean survival time [3] [days]	intracellular cAMP level [4]	body weight loss [5]	LPS-induced inflammation (iNOS expression and NO production) [6]	LPS-evoked NO production [7]	LPS-evoked iNOS induction [7]	suppression of the cAMP response by A2A-R antagonist [4]
Oc1ccc(CSCc2ccc(O)cc2)cc1 [T1-C, 4,4′-dihydroxybenzyl sulfide]	active	markedly delayed	elongated	106.7 ± 4.6	elevated	ameliorated				
OCC1OC(n2cnc3c(NCc4ccc(O)cc4)ncnc32)C(O)C1O (stereo not shown) [T1-11, 2-(6-(4-hydroxybenzylamino)-9H-purin-9-yl)-5-(hydroxymethyl)tetrahydrofuran-3,4-diol]	active; also recorded: much more potent than T1-C	markedly delayed	elongated	104.9 ± 5.2	elevated	ameliorated	effectively suppressed	reduces	reduces	
Cn1c(=O)c2c(nc(/C=C/c3cccc(Cl)c3)n2C)n(C)c1=O [CSC, reference compound]										suppressed
